Experimental data published in US9708639B2, “Method for quantifying amino acids with pyrophosphate” (TOYAMA PREFECTURE, priority 2012, dated 2017).

Key:
Thermotoga-derived SerRS = biological target: T1, Thermotoga-derived SerRS (Thermotoga maritima, UniProt Q9X199); assay: Calibration curve for amino acid by coupled PPDK and LDH; format: biochemical, Thermotoga maritima MSB8 strain; conditions: Ser 0 to 200 μM; hydroxylamine 1000 mM; SerRS 0.2 mg/ml (8 mU/ml); 30° C.
T1 construct: His tag (C); made in house; host or cells: Escherichia coli BL21 (DE3)
Procedure: (§1) A test sample containing an amino acid as the measurement subject and a reaction mixture for quantifying amino acid having the following composition were mixed. The mixture was left standing at 30° C. to allow the AARS, PPDK, and LDH reactions to advance, and decrease of the absorbance at 340 nm was measured. The volume of the mixture was 200 μl, and after the reaction mixture was put into the wells of a 96-well microplate, the absorbance was measured with a microplate reader.
(§2) Reaction mixture for quantifying amino acid: 20 mM Tris-HCl (pH 7.0), 10 mM MgCl2, 10 mM NH4Cl, 0.3 mM PEP, 0.3 mM NADH, 0.2 mM ATP, 0.2 mM AMP, 70 mU/ml PPDK, 50 U/ml LDH, and AARS (concentrations are final concentrations obtained after mixing with test sample)
(§3) Calibration curves were prepared by using the AARS activity measurement method described in 8. and standard Cys, Lys, Ser, and Tyr solutions as test samples. The concentrations of the aforementioned amino acids were set so that the final concentrations thereof are in the range of 0 to 200 μM. The hydroxylamine concentration was 200 mM for the samples used for the Tyr calibration curve, or 1000 mM for the samples used for the Cys, Lys, and Ser calibration curves. The Thermotoga-derived CysRS, LysRS, SerRS, TyrRS, and the Thermus-derived TyrRS were added to the reaction mixture at final concentrations of 0.2 (7 mU/ml), 0.1 (10 mU/ml), 0.2 (8 mU/ml), 0.4 (40 mU/ml), and 0.1 mg/ml, respectively.
(§4) Calibration curves could be similarly prepared when adding pyrophosphate instead of the aforementioned amino acids, but the inclinations of the Lys, Ser, and Tyr calibration curves (absorbance change per mM of substrate) were 80% or more of the inclination of the pyrophosphate calibration curve. […] The inclination of the Cys calibration curve was slightly smaller than those of the other calibration curves, and it is considered that this is because a part of cysteine in the test sample was converted into cystine by air oxidation, and the real concentration of cysteine was reduced.

Thermotoga-derived TyrRS = biological target: T2, Thermotoga-derived TyrRS (Thermotoga maritima, UniProt Q9WYU8); assay: as above; format: biochemical, Thermotoga maritima MSB8 strain; conditions: Tyr 0 to 200 μM; hydroxylamine 200 mM; TyrRS 0.4 mg/ml (40 mU/ml); 30° C.
T2 construct: The amplification products were each inserted into pET-28a to obtain plasmids for expression of respective AARSs; His tag (N); made in house; host or cells: Escherichia coli BL21 (DE3)
T2 sequence (Q9WYU8 1-401): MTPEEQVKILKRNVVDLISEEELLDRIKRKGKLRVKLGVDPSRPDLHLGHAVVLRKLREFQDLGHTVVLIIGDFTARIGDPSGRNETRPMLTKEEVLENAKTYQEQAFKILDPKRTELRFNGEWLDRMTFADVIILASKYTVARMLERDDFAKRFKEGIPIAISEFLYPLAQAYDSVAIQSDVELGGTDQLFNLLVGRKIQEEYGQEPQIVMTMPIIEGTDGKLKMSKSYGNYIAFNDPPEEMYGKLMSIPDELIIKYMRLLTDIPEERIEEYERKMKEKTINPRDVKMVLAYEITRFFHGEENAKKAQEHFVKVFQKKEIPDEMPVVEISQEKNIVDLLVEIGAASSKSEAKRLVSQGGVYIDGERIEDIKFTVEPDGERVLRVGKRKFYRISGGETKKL
Procedure: as §1, §2, §3, §4

T1 sequence (Q9X199 whole entry): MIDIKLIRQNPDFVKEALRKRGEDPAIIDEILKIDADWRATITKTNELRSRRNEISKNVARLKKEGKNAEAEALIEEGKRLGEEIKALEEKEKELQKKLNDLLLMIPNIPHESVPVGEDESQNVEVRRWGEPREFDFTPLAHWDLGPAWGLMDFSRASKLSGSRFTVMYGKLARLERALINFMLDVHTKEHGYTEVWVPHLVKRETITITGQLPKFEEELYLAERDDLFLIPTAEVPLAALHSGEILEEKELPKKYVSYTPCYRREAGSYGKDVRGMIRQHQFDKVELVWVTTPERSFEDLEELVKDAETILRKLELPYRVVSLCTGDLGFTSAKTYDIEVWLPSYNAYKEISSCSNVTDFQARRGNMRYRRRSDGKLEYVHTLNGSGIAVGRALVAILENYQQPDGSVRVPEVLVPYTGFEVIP

N[C@@H](CO)C(=O)O [Ser, L-serine]
inclination of calibration curve relative to inclination of the pyrophosphate calibration curve (Thermotoga-derived SerRS): ≥ 80%

N[C@@H](Cc1ccc(O)cc1)C(=O)O [Tyr, L-tyrosine]
inclination of calibration curve relative to inclination of the pyrophosphate calibration curve (Thermotoga-derived TyrRS): ≥ 80%
